Conditions: 101.33 kPa, Liquid; for speed of sound: Sing-around technique in a fixed-path interferometer; for mass density: Vibrating tube method

CC(=O)[O-].C[NH2+]CCO [N-methyl-2-hydroxyethylammonium acetate]
Conditions	mass density [kg/m3]	speed of sound [m/s]	viscosity [mPa·s]
293.15 K	1103.76	1807.5	–
293.4 K	1103.61	1806.9	–
293.65 K	1103.46	1806.3	–
293.9 K	1103.32	1805.6	–
294.15 K	1103.17	1805	–
294.4 K	1103.02	1804.3	–
294.65 K	1102.88	1803.7	–
294.9 K	1102.73	1803.1	–
295.15 K	1102.59	1802.4	–
295.4 K	1102.44	1801.8	–
295.65 K	1102.29	1801.2	–
295.9 K	1102.14	1800.5	–
296.15 K	1102	1799.9	–
296.4 K	1101.85	1799.2	–
296.65 K	1101.7	1798.6	–
296.9 K	1101.56	1798	–
297.15 K	1101.41	1797.3	–
297.4 K	1101.26	1796.7	–
297.65 K	1101.11	1796	–
297.9 K	1100.97	1795.4	–
298.15 K	1100.83	1794.8	106.06
298.4 K	1100.67	1794.1	–
298.65 K	1100.53	1793.5	–
298.9 K	1100.38	1792.9	–
299.15 K	1100.23	1792.2	–
299.4 K	1100.08	1791.6	–
299.65 K	1099.93	1791	–
299.9 K	1099.78	1790.3	–
300.15 K	1099.63	1789.7	–
300.4 K	1099.48	1789	–
300.65 K	1099.34	1788.4	–
300.9 K	1099.19	1787.8	–
301.15 K	1099.04	1787.1	–
301.4 K	1098.89	1786.5	–
301.65 K	1098.74	1785.8	–
301.9 K	1098.59	1785.2	–
302.15 K	1098.44	1784.6	–
302.4 K	1098.29	1783.9	–
302.65 K	1098.14	1783.3	–
302.9 K	1097.99	1782.6	–
303.15 K	1097.84	1782	78.7
303.4 K	1097.69	1781.3	–
303.65 K	1097.54	1780.7	–
303.9 K	1097.4	1780.2	–
304.15 K	1097.25	1779.6	–
304.4 K	1097.1	1779	–
304.65 K	1096.95	1778.3	–
304.91 K	1096.79	1777.7	–
305.15 K	1096.64	1777	–
305.4 K	1096.49	1776.4	–
305.65 K	1096.34	1775.7	–
305.9 K	1096.19	1775.1	–
306.15 K	1096.04	1774.5	–
306.4 K	1095.89	1773.8	–
306.65 K	1095.74	1773.2	–
306.9 K	1095.59	1772.5	–
307.15 K	1095.44	1771.9	–
307.4 K	1095.29	1771.3	–
307.65 K	1095.14	1770.6	–
307.9 K	1094.98	1770	–
308.15 K	–	–	60.03

Source: the NIST ThermoML archive (doi:10.1021/je900550v)
